Measurements: ChEMBL document CHEMBL1133981, “Synthesis of a reported calpain inhibitor isolated from Streptomyces griseus” (Bioorg Med Chem Lett, 2001)
Activity calls are given as the source filed them. No cut-off for these calls is given here.

Legend:
[1] = target: T1, Calpain small subunit 1 (Sus scrofa) (UniProt P04574); assay: Compound was tested for its inhibitory activity against porcine erythrocyte Calpain 1 up to a concentration of 1 mM; NA=Not active
T1 sequence (whole entry): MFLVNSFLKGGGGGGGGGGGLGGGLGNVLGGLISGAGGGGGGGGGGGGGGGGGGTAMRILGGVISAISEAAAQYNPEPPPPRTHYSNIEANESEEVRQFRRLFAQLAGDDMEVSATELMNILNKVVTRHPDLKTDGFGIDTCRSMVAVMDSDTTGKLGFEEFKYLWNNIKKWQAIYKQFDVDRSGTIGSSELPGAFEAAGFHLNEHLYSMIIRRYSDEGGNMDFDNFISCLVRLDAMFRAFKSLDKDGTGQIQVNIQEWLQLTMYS

[2] = target: T2, Calpain-1 catalytic subunit (Homo sapiens, UniProt P07384); assay: Compound was tested for its inhibitory activity against calpain […]
T2 sequence (P07384 whole entry): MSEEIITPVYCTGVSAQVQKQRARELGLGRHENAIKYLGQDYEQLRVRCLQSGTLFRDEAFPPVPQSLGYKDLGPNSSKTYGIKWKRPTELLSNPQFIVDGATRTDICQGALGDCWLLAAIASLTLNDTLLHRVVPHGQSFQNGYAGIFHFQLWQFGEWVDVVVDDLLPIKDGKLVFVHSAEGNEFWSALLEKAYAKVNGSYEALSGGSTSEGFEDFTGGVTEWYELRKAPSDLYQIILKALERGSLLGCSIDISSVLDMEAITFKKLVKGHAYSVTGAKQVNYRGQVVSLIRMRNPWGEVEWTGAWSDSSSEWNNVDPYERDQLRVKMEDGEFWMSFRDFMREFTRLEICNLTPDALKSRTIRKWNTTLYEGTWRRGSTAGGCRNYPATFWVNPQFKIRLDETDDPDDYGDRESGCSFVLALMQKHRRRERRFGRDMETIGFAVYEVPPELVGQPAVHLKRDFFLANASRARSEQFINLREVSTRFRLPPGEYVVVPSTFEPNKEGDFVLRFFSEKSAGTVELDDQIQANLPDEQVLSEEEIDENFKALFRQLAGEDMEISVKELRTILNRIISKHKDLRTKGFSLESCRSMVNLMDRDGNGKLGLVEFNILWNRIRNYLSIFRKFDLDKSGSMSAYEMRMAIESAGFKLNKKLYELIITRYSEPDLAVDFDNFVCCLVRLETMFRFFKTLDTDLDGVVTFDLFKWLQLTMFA

[3] = target: T2, Calpain-1 catalytic subunit; assay: Compound was tested for its inhibitory activity against calpain […] (SC488)

| Activity [1] | IC50 [2] [nM] | IC50 [3] [nM] | Compound |
| --- | --- | --- | --- |
| inactive | – | – | CN1C(=O)[C@H](Cc2ccccc2)N(C)C(=O)[C@H]1Cc1ccccc1 |
| inactive | – | – | CN1C(=O)[C@H](Cc2ccccc2)N(C)C(=O)[C@@H]1Cc1ccccc1 |
| – | 1200 | – | CC(C)c1ncc(Cc2ccccc2)[nH]c1=O |
| inactive | – | 800 | CN1C(=O)[C@H](Cc2ccc(O)cc2)N(C)C(=O)[C@@H]1Cc1ccc(O)cc1 |
